In patent US20190365645A1, “DRUG DELIVERY ARTICLES FOR GRAM-LEVEL DOSING” (Massachusetts Institute of Technology, priority 2018, published 2019):

Legend:
[1] = In vitro drug release from drug-vinylpolysiloxane pills/articles (simulated gastric fluid or water); format: physicochemical; settings: for in vitro release from drug-VPS pills: SGF (isoniazid and rifampicin in water)
Protocol: Articles with a series of 30 pills were made so that there was 1 gram of doxycycline hyclate in 2 grams of vinylpolysiloxane. Pills were coated with either cellulose acetate butyrate (CAB) or with Eudragit RS PO. A control with no coatings was also made. The articles were immersed in simulated gastric fluid, and the cumulative release of doxycycline hyclate was measured for more than 26 days.
Thickness of coatings was tuned by increasing the spray volume.
Individual pills made of drug-VPS for doxycycline hyclate, isoniazid, ethambutol, pyrazinamide, moxifloxacin were used to evaluate long-term release kinetics in SGF. Pill formulations were incubated in a New Brunswick Innova 44 shaking incubator (Eppendorf) at 37° C. and 200 rpm in 50 mL of SGF for up to 28 days, with solution exchanges at specified time intervals. Drug concentrations were then analyzed using a High-Performance Liquid Chromatography (HPLC). Because of the lack of a validated HPLC method for evaluating isoniazid in SGF, water was used to study differences between isoniazid formulations. Three intact rifampicin devices were fabricated by loading 2 grams of drug into VPS pills. The devices were incubated in 500 mL of nanopure water for up to 26 days in a shaking incubator at 37° C. and 200 rpm, with media exchange at specified time intervals. […] The drug concentrations samples were then measured on an Infinite M200Pro (Tecan) reader (absorbance, 475 nm).
An Agilent 1260 Infinity II HPLC system (Agilent Technologies, Inc.) equipped with a Model 1260 quaternary pump, Model 1260 High Performance autosampler, Model 1260 thermostat, Model 1260 Infinity Thermostatted Column Compartment control module, and Model 1260 diode array detector was utilized. Data processing and analysis was performed using OpenLab CDS ChemStation (Agilent Technologies, Inc.). All solvents used were purchased from Sigma-Aldrich Corporation. For doxycycline hyclate, chromatographic isocratic separation was carried out on an Agilent 4.6×50 mm AdvanceBio RP-mAb SB-C8 analytical column with 3.5 μm particles, maintained at 55° C. The optimized mobile phase consisted of 20 mM dipotassium phosphate buffer and acetonitrile (pH 6 adjusted with triethylamine) [60:40 (v/v)] at a flow rate of 0.85 mL/min over a 4 min run time. The injection volume was 5 μl, and the selected ultraviolet (UV) detection wavelength was 293 nm.

[2] = reason water was used as release medium; cited from earlier work
[3] = pig, in vivo

## CC[C@@H](CO)NCCN[C@@H](CC)CO [ethambutol]
[1]
  in vitro release from drug-VPS pills: able to release

## NNC(=O)c1ccncc1 [isoniazid]
[1]
  in vitro release from drug-VPS pills: able to release

## NC(=O)c1cnccn1 [pyrazinamide]
[1]
  in vitro release from drug-VPS pills: able to release

## CO[C@H]1/C=C/O[C@@]2(C)Oc3c(C)c(O)c4c(O)c(c(/C=N/N5CCN(C)CC5)c(O)c4c3C2=O)NC(=O)/C(C)=C\C=C\[C@H](C)[C@H](O)[C@@H](C)[C@@H](O)[C@@H](C)[C@H](OC(C)=O)[C@@H]1C [rifampicin]
[2]
  stability in acid: rapidly degrades in acid
[3]
  duration of detectable serum concentrations: for a week

## doxycycline hyclate
[1]; articles of 30 pills, 1 gram drug in 2 grams vinylpolysiloxane, simulated gastric fluid
  duration of drug release (cumulative release): more than 26 days
[1]; formulations coated with Eudragit RS 100, SGF
  release kinetic profile: linear kinetic profile with limited burst release
[3]
  duration drug detectable in serum: at least 28 days
  duration of sustained drug release, non-zero concentrations in the blood: at least 7 days
  time after which no drug was detectable in serum: 3 ays
  time to detectable serum concentrations: ≤ 15 min
